Marks after values point to notes of the source that are not given here.

Common to all, as to format: in vivo, C57BL/6N/CriBgi mice
Test [1] can be described thus: Triglyceride and cholesterol level in liver tissue. Conditions: high fat diet, 6 weeks. The procedure:
Seventy (70) 4-week-old male C57BL/6N/CriBgi mice weighing 14 g were purchased from Orient, and reared in separate cages maintained at 24° C. and relative humidity of 55%, providing light from 08:00 until 20:00. The mice were accustomed while providing a pellet type diet for a week. The mice, which weighed 18.5-18.7 g, were grouped into seven groups by the randomized block design. Each group was given a different diet, as follows.
(§1) Test diets were as follows: “normal diet group”=AIN-76 semisynthetic diet of Teklad (Madison, Wl, USA); “high fat diet group”=normal diet+10% of corn oil and 10% of lard; “test group I”=high fat diet+fucoxanthin extract of Example 1 (fucoxanthin content=0.05%); “test group II”=high fat diet+fucoxanthin extract of Example 1 (fucoxanthin content=0.2%); “test group III”=high fat diet+fucoxanthin extract of Example 2 (fucoxanthin content=0.05%); “test group IV”=high fat diet+fucoxanthin extract of Example 2 (fucoxanthin content=0.2%). The 6 diets (normal diet, high fat diet, and test I, II, III and IV) were given to the animals for 6 weeks. Diet intake was recorded every day, and body weight was measured once a week.

Test [2] concerns malic enzyme (ME). The experiment in a line: ME activity in adipose tissue. Conditions: high fat diet, 6 weeks.
Source text: as §1
(§2) The supernatant was centrifuged again at 12,000×g for 15 minutes. Then, the supernatant was subjected to high-speed centrifuging (Beckman, Optima TLX-120, USA) at 100,000×g for 1 hour. Then, change of the activity of enzymes involved in the synthesis of fatty acid—fatty acid synthase (FAS), glucose-6-phosphate dehydrogenase (G6PD) and malic enzyme (ME)—was measured.
(§3) The ME enzyme is also an enzyme that supplied reducing energy required for the synthesis of fatty acid. […] ME activity was determined as follows. […] After 2 minutes of reaction at 27° C., absorbance was measured at 340 nm. ME activity was calculated as nmol of NADPH produced per 1 mg of protein in cell per minute.

Test [3] relates to fatty acid synthase (FAS). As to the kind of experiment: FAS activity in adipose tissue. Conditions: high fat diet, 6 weeks.
Source text: as §1, §2
Specifically, FAS activity was determined as follows. […] After 10 minutes of reaction at 30° C., decrease of absorbance was measured. FAS activity was calculated as nmol of NADPH oxidized per 1 mg of protein in cell per minute.

The test system of test [4] is glucose-6-phosphate dehydrogenase (G6PD). The experiment in a line: G6PD activity in adipose tissue. Conditions: high fat diet, 6 weeks.
Source text: as §1, §2
The G6PD enzyme is an enzyme that supplied reducing energy required for the synthesis of fatty acid. […] G6PD activity was measured at 340 nm by the degree of reduction of NADP^+ to NADPH by G6PD. […] G6PD activity was calculated as nmol of NADPH produced per 1 mg of protein in cell per minute.

Test [5] concerns malic enzyme (ME). As to the kind of experiment: ME activity in liver tissue. Conditions: high fat diet, 6 weeks.
Source text: as §1, §2, §3

Another test relates to CPT mRNA. As to the kind of experiment: Expression of mRNA for CPT in adipose tissue (real-time PCR). Conditions: normal diet = 1.00, GAPDH internal marker.
Source text: as §1
(§4) 5 mL of Trizol was added to 0.5 g of white adipose tissue. After pulverizing in liquid nitrogen using a mortar, the tissue was added to 1 mL of chloroform. […] The isolated RNA was diluted and absorbance was measured at 260 nm using a UV spectrometer. […]
(§5) Thus prepared cDNA was […] 10-fold, and primers for analyzing the expression of the respective genes (CPT, β-oxidation, FAS, ME and G6PD) were obtained from Genotech (Daejeon, Korea). […] Fluorescence signals were monitored for each cycle and threshold cycle (Cr) was analyzed for quantitative analysis of mRNA for the test groups (Applied Biosystems, SDS7000) (Livak, 2001). […]
In general terms: In qPCR the cycle at which signal appears reflects the starting amount.

For another test, the system named is FAS mRNA. The experiment in a line: Expression of mRNA for FAS in adipose tissue (real-time PCR). Conditions: normal diet = 1.00, GAPDH internal marker.
Source text: as §1, §4, §5

The mark [6] stands for this setting: fucoxanthin content 0.05% (Test I/III).
[7] abbreviates: fucoxanthin content 0.2% (Test II/IV).

`CC(=O)O[C@H]1CC(C)(C)C(=C=C/C(C)=C/C=C/C(C)=C/C=C/C=C(C)/C=C/C=C(\C)C(=O)C[C@@]23O[C@]2(C)C[C@@H](O)CC3(C)C)[C@](C)(O)C1` [highly pure fucoxanthin, Fucoxanthin]: the entries for the “Triglyceride level in liver tissue” value in test [1] (setting [6]) and in test [1] (setting [7]) were 0.14 ± 0.01^c mmol/g liver and 0.17 ± 0.02^b mmol/g liver, respectively. In addition, the ME activity in the test on malic enzyme (ME) [2] (setting [6]) is 0.92 ± 0.14^a mmol/min/mg protein; in the test with malic enzyme (ME) [2] (setting [7]), 0.94 ± 0.11^a mmol/min/mg protein; in the test with malic enzyme (ME) [5] (setting [6]) it was 77.06 ± 7.08^a mmol/min/mg protein; with malic enzyme (ME) [5] (setting [7]), 73.91 ± 6.37^a mmol/min/mg protein. In addition, the FAS activity in test [3] (setting [6]) is recorded as 90.55 ± 9.66^a mmol/min/mg protein; in test [3] (setting [7]), 74.26 ± 6.38^a mmol/min/mg protein. Further, the G6PD activity in test [4] (setting [6]) is listed as 1.25 ± 0.27^a mmol/min/mg protein; in test [4] (setting [7]) it was 1.27 ± 0.15^a mmol/min/mg protein. In addition, the “Expression of mRNA, CPT” value with CPT mRNA (setting [6]) was 1.65 ± 0.15^c; with CPT mRNA (setting [7]), 1.51 ± 0.06^bc. Also, the “Expression of mRNA, FAS” value in the test on FAS mRNA (setting [6]) is given as 0.51 ± 0.03^abc; with FAS mRNA (setting [7]), 0.28 ± 0.05^a.
